In general, CC50 refers to the concentration giving 50% cytotoxicity. A word on the half-life: it is the time in which the quantity being followed falls by half. Low values mean rapid decline, high ones slow decline.

Series [1] can be described thus: Cytotoxicity against HEK293T cells assessed as reduction in cell viability measured after 48 hrs by MTT assay. The class given is toxicity, cell-based, HEK-293T. The note with it: human.
A short description of series [2]: Half-life in rat whole blood at 500 ng/ml by LC-MS/MS analysis. It is filed as ADME, tissue-based.
The nature of series [3]: Drug uptake in human skin fibroblast lysosomes assessed as fold change in corrected total cell fluorescence at 50 uM measured after 2 hrs by LysoTracker Red DND-99 dye based laser scanning confocal microscopy relative to control. The class given is ADME, subcellular, Lysosome.

With `CN1CCN(CCCC(=O)O[C@H]2C(C)(C)[C@H]3CC[C@]2(C)C3)CC1`, in series [1], the CC50 at 48 h was greater than 775 µM.
Still for that read-out and setting: the same measure for `CC1(C)[C@H]2CC[C@](C)(C2)[C@H]1OC(=O)CN1CCOCC1`: 291 µM.
As to `CN1CCN(CC(=O)O[C@H]2C(C)(C)[C@H]3CC[C@]2(C)C3)CC1`, the CC50 at 48 h in series [1] stood at 645 µM.
As for `CCN1CCN(CCC(=O)O[C@H]2C(C)(C)[C@H]3CC[C@]2(C)C3)CC1`, the CC50 at 48 h in series [1] worked out at 356 µM.
Same read-out and setting: the figure for `CC1(C)[C@H]2CC[C@](C)(C2)[C@H]1OC(=O)CCCN1CCCCC1` is 458 µM.
On to `CC1(C)[C@@H]2CC[C@@]1(C)[C@@H](OC(=O)CCN1CCCCC1)C2`, for which the half-life at 500 ng/ml in series [2] stood at 20 min.
With `CN1CCN(CCC(=O)O[C@H]2C(C)(C)[C@H]3CC[C@]2(C)C3)CC1`, in series [1], the CC50 at 48 h was determined as 454 µM. In addition, the “fold change (FC)” value in series [3] came to 0.33.
`C[C@@H]1[C@H]2C[C@@H](C[C@H]1OC(=O)CCN1CCN(c3ccccc3)CC1)C2(C)C`: the CC50 at 48 h in series [1] came to 128 µM.
Take `C[C@@H]1[C@H]2C[C@@H](C[C@H]1OC(=O)CCCN1CCN(c3ccccc3)CC1)C2(C)C`: in series [1], the CC50 at 48 h was 67 µM.
As to `C[C@@H]1[C@H]2C[C@@H](C[C@H]1OC(=O)CCN1CCN(C)CC1)C2(C)C`, the CC50 at 48 h in series [1] is 318 µM.
For `CCN1CCN(CCCC(=O)O[C@H]2C(C)(C)[C@H]3CC[C@]2(C)C3)CC1`, the CC50 at 48 h in series [1] amounted to 404 µM.
Same read-out and setting: the same measure for `C[C@@H]1[C@H]2C[C@@H](C[C@H]1OC(=O)CN1CCN(C)CC1)C2(C)C`: 628 µM.
Regarding `C[C@@H]1[C@H]2C[C@@H](C[C@H]1OC(=O)CN1CCN(c3ccccc3)CC1)C2(C)C`, the CC50 at 48 h in series [1] came to 59 µM.
On the same count and under the same terms, the figure for `CC1CCN(CC(=O)O[C@H]2C(C)(C)[C@H]3CC[C@]2(C)C3)CC1` is 241 µM.
Still for that read-out and setting: the figure for `CC1(C)[C@H]2CC[C@](C)(C2)[C@H]1OC(=O)CCCN1CCN(c2ccccc2)CC1` is 11 µM; for `CC1(C)[C@H]2CC[C@](C)(C2)[C@H]1OC(=O)CCN1CCN(c2ccccc2)CC1` it is 21 µM; for `CCN1CCN(CC(=O)O[C@H]2C(C)(C)[C@H]3CC[C@]2(C)C3)CC1` it is 907 µM.
For the compound `CC1(C)[C@H]2CC[C@](C)(C2)[C@H]1OC(=O)CN1CCCCC1`, the CC50 at 48 h in series [1] was 229 µM. The “fold change (FC)” value in series [3] was found to be 0.6.
Take `C[C@@H]1[C@H]2C[C@@H](C[C@H]1OC(=O)CCN1CCCCC1)C2(C)C`: in series [1], the CC50 at 48 h amounted to 334 µM. Moreover, in series [3], the “fold change (FC)” value came to 0.37.
Turning to `CC1CCN(CCC(=O)O[C@H]2C(C)(C)[C@H]3CC[C@]2(C)C3)CC1`, in series [1], the CC50 at 48 h stood at 188 µM.
For the compound `CC1(C)[C@H]2CC[C@](C)(C2)[C@H]1OC(=O)CCCN1CCOCC1`, in series [1], the CC50 at 48 h turned out to be 261 µM. The “fold change (FC)” value in series [3] is on record as 0.56.
On the same counts, the results for `CC1(C)[C@H]2CC[C@](C)(C2)[C@H]1OC(=O)CCN1CCCCC1` are 351 µM and 0.3.
On to `CC1(C)[C@H]2CC[C@](C)(C2)[C@H]1OC(=O)CN1CCN(c2ccccc2)CC1`, for which, in series [1], the CC50 at 48 h was 101 µM.
Still for that read-out and setting: the same measure for `C[C@@H]1[C@H]2C[C@@H](C[C@H]1OC(=O)CCCN1CCN(C)CC1)C2(C)C`: 164 µM.
For `C[C@@H]1[C@H]2C[C@@H](C[C@H]1OC(=O)CN1CCOCC1)C2(C)C`, the CC50 at 48 h in series [1] was found to be 199 µM. In series [3], the “fold change (FC)” value turned out to be 0.56.
`C[C@@H]1[C@H]2C[C@@H](C[C@H]1OC(=O)CCCN1CCCCC1)C2(C)C`: the CC50 at 48 h in series [1] came to 123 µM.
As for `C[C@@H]1[C@H]2C[C@@H](C[C@H]1OC(=O)CN1CCCCC1)C2(C)C`, in series [1], the CC50 at 48 h was found to be 314 µM. The “fold change (FC)” value in series [3] came out at 0.46.
On the same counts, the results for `C[C@@H]1[C@H]2C[C@@H](C[C@H]1OC(=O)CCN1CCOCC1)C2(C)C` are 281 µM and 0.57.
Turning to `C[C@@H]1[C@H]2C[C@@H](C[C@H]1OC(=O)CCCN1CCOCC1)C2(C)C`, in series [1], the CC50 at 48 h turned out to be 116 µM.
As for `CC1(C)[C@H]2CC[C@](C)(C2)[C@H]1OC(=O)CCN1CCOCC1`, the CC50 at 48 h in series [1] was determined as 318 µM.
On the same count and under the same terms, the figure for `CC1CCN(CCCC(=O)O[C@H]2C(C)(C)[C@H]3CC[C@]2(C)C3)CC1` is 130 µM; for `CN(C)CCOc1ccc(/C(=C(/CCCl)c2ccccc2)c2ccccc2)cc1` [TOREMIFENE] it is 17 µM.

Source of the values: ChEMBL document CHEMBL5579834 (Eur J Med Chem, 2024).
